These results are taken from patent EP0249194A2, “Topical prostaglandin formulations” (AMERICAN CYANAMID COMPANY, priority 1986, dated 1987).

A short description of series [1]: Stability of viprostol compositions on storage in glass (ampules). Format: physicochemical.
Series [2] has as its system male pattern baldness. The series can be described thus: Clinical study of hair growth after once-daily topical application to the scalp, hair counts. The note with it: topical application of small amounts; mean hair counts over a six-month period (Figs. 1-5) and three-month chart. Format: in vivo, healthy, male volunteers. How it is done: Clinical studies using healthy, male volunteers (age 18-65) with vertex baldness and some recession of front hairline were performed using viprostol in Formulation A, above-described. The volunteers were not hypertensive. […] The hairs on such location were counted at the beginning of the study, and recounts were done periodically during the course of the study. All hair, including unpigmented vellus and pigmented intermediate and terminal hair was, counted, except as indicated hereinbelow. The amount of viprostol applied was approximately 120 mcg, which amount was applied once daily to the bald and balding areas of the scalp. The viprostol was contained in the above-described Formulation A. Approximately 0.3 ml of such formulation was topically to the scalp with an index finger and rubbing action. The scalp was clean (recently shampooed) and dry at application. The chart below summarizes the results after three months of study.
Additionally, as the study proceeded beyond three months, the results wre charted as mean hair counts over time.

Structures are written as SMILES. Where two headings read alike, the source gives them in different places.

Take `C=CC(O)(CC=CC1C(O)CC(=O)C1CC=CCCCC(=O)OC)CCCC` (racemic) [viprostol, Methyl (±)-[11α,5Z(5E), 13E, 16R and 16S]-16 ethenyl-11,16-dihydroxy-9-oxoprosta-5,13-dien-1-oate]: the “Stability of Viprostol Compositions (% of Initial Potency)” value in series [1] (Initial) stood at 100%. For the same molecule, the remaining at 1440 h in series [1] (neat bulk liquid, 23°C 2 months, read-out: Stability of Viprostol Compositions (% of Initial Potency)) was found to be 99%; in series [1] (neat bulk liquid, 42°C 2 months, read-out: Stability of Viprostol Compositions (% of Initial Potency)), 83%; in series [1] (neat bulk liquid, 56°C 2 months, read-out: Stability of Viprostol Compositions (% of Initial Potency)), 0%. Further, the remaining at 4320 h in series [1] (neat bulk liquid, 23°C 6 months, read-out: Stability of Viprostol Compositions (% of Initial Potency)) was determined as 87%. Further, the remaining at 8760 h in series [1] (neat bulk liquid, 23°C 12 months, read-out: Stability of Viprostol Compositions (% of Initial Potency)) worked out at 20%. Moreover, the remaining at 13152 h in series [1] (neat bulk liquid, 23°C 18 months, read-out: Stability of Viprostol Compositions (% of Initial Potency)) is 12%. Moreover, the remaining at 720 h in series [1] (neat bulk liquid, 56°C 1 month, read-out: Stability of Viprostol Compositions (% of Initial Potency)) came out at 32%. Also, the hair growth entry in series [2] was “caused hair growth”.
